The values that follow come from ChEMBL document CHEMBL3860064, “Synthesis of (benzimidazol-2-yl)aniline derivatives as glycogen phosphorylase inhibitors” (Bioorg Med Chem, 2016).

A word on the IC50: it is the concentration at which inhibition is half-maximal. Usually inhibition stands for the percentage by which the read-out fell short of the control.

Series [1] in a line: Aqueous solubility of the compound in 20% DMSO. The class given is physicochemical. As to conditions: buffer.
The target of series [2] is T1, Glycogen phosphorylase, muscle form (Oryctolagus cuniculus, UniProt P00489).
T1 sequence (P00489 whole entry): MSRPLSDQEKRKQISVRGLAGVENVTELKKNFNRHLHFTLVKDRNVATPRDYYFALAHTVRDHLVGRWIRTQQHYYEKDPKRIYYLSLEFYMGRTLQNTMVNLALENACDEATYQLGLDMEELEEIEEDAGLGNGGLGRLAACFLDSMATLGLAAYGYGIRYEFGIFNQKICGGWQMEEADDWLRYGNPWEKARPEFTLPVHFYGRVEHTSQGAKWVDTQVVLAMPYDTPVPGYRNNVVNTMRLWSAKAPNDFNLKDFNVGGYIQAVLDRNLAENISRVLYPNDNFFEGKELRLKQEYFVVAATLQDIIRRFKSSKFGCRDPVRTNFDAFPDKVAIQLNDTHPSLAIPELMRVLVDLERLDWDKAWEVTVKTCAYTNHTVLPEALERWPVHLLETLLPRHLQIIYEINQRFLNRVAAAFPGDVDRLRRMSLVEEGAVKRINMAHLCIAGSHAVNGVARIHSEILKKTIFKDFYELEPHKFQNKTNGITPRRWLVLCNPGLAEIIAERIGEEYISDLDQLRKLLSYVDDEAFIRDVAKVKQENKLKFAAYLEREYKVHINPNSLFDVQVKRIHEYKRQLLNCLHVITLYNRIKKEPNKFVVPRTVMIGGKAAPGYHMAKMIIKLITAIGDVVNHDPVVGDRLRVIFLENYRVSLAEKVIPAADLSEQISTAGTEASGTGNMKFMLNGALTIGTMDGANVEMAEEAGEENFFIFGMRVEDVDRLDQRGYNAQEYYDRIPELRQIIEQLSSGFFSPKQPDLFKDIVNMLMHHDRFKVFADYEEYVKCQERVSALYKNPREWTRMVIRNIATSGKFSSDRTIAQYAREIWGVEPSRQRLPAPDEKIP
Put plainly: Inhibition of rabbit skeletal muscle glycogen phosphorylase b assessed as reduction in inorganic phosphate release using glucose-1-phosphate as substrate at pH 6.8.

Series [3] in a line: Solubility of the compound in water. The class given is physicochemical. As to conditions: buffer.
The target of series [4] is T2, Glycogen phosphorylase, muscle form (Oryctolagus cuniculus) (UniProt P00489).
T2 sequence (whole entry): T1 sequence (P00489 whole entry)
In words: Inhibition of rabbit skeletal muscle glycogen phosphorylase b assessed as inorganic phosphate release using glucose-1-phosphate as substrate at pH 6.8 at 300 uM.

The target in series [5] is T2, Glycogen phosphorylase, muscle form (Oryctolagus cuniculus). Put plainly: Inhibition of rabbit skeletal muscle glycogen phosphorylase b assessed as inorganic phosphate release using glucose-1-phosphate as substrate at pH 6.8 at 500 uM.
Series [6] shares this target. In words: Inhibition of rabbit skeletal muscle glycogen phosphorylase b assessed as inorganic phosphate release using glucose-1-phosphate as substrate at pH 6.8 at 1000 uM.
Series [7] has the same target. In words: Inhibition of rabbit skeletal muscle glycogen phosphorylase b assessed as inorganic phosphate release using glucose-1-phosphate as substrate at pH 6.8 at 200 uM.
Series [8] shares this target. Put plainly: Inhibition of rabbit skeletal muscle glycogen phosphorylase b assessed as inorganic phosphate release using glucose-1-phosphate as substrate at pH 6.8 at 250 uM.
Series [9] has as its target T3, Glycogen phosphorylase, liver form (Homo sapiens, UniProt P06737).
T3 sequence (P06737 whole entry): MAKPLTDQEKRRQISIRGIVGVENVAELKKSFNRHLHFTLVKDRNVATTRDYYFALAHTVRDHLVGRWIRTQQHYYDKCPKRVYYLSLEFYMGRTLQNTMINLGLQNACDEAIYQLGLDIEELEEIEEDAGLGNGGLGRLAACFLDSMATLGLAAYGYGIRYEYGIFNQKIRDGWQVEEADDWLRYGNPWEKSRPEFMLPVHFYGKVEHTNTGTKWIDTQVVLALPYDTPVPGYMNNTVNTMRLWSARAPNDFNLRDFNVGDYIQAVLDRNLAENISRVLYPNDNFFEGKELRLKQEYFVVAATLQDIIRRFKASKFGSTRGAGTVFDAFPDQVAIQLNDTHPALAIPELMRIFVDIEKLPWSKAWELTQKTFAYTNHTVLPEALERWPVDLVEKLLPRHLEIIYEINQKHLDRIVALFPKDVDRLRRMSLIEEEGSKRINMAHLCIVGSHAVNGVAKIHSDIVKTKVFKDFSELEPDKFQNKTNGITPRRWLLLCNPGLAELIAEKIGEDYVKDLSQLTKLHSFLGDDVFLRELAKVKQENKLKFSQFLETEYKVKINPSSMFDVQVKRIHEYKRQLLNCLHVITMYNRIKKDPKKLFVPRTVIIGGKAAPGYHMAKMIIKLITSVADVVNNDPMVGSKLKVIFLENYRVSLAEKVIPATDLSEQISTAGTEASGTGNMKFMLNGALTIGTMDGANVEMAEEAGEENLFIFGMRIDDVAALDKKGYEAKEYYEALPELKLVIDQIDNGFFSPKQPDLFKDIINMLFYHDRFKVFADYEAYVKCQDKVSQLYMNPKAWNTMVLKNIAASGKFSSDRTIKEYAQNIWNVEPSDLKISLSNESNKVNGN
Put plainly: Inhibition of human recombinant liver glycogen phosphorylase A expressed in baculovirus infected Sf9 insect cells assessed as release of phosphate from glucose-1- phosphate in presence of 7.5 mM glucose by malachite green based assay.

Series [10] has as its target T1, Glycogen phosphorylase, muscle form. Put plainly: Inhibition of rabbit muscle glycogen phosphorylase b using […] preincubated for 60 mins followed by substrate addition in presence of glycogen.

For `O=S(=O)(Nc1ccc(-c2nc3ccccc3[nH]2)cc1)c1ccccc1`, the values for the solubility entry in series [1] and in [3] were “Soluble” and “Insoluble”, respectively. Besides, in series [2], the IC50 worked out at 324 µM.

`S=C1N=C(Nc2ccc(-c3nc4ccccc4[nH]3)cc2)CN1`: the solubility entry in series [3] was “Insoluble”.

Take `S=C1N=C(Nc2ccc(-c3nc4ccccc4[nH]3)cc2)CNN1`: the solubility result is “Soluble” in series [1] and “Insoluble” in [3].

For the compound `O=C(O)c1cc(Nc2ccc(-c3nc4ccccc4[nH]3)cc2)n(-c2ccccc2)n1`, the solubility result in series [3] is “Insoluble”. The inhibition in [4] worked out at 25%.

On to `CCOC(=O)C(=NNc1ccc(-c2nc3ccccc3[nH]2)cc1)C(=O)OCC`, for which the solubility entry in series [1] was “Soluble”; in [3], “Insoluble”.

With `Cc1nn(-c2ccc([N+](=O)[O-])cc2)c(C)c1/N=N/c1ccc(-c2nc3ccccc3[nH]2)cc1`, the IC50 in [2] amounted to 532 µM. The solubility result in [3] is “Insoluble”.

Consider `N=C1N=C(Nc2ccc(-c3nc4ccccc4[nH]3)cc2)CN1`, for which the solubility result in [3] is reported as “Insoluble”.

In the case of `O=C1N=C(Nc2ccc(-c3nc4ccccc4[nH]3)cc2)CN1`, the solubility result in series [3] was “Insoluble”.

As to `Cc1nn(-c2ccccc2)c(C)c1/N=N/c1ccc(-c2nc3ccccc3[nH]2)cc1`, in series [3], the solubility result is given as “Insoluble”.

Take `O=[N+]([O-])c1ccccc1S(=O)(=O)Nc1ccc(-c2nc3ccccc3[nH]2)cc1`: the solubility result in [1] was “Soluble”; in [3] it was “Insoluble”. The IC50 in [2] was determined as 358 µM.

Consider `O=c1[nH][nH]c(O)c1/N=N/c1ccc(-c2nc3ccccc3[nH]2)cc1`, for which, in [5], the inhibition was 29.4%. Further, the solubility entry in [3] is recorded as “Insoluble”.

For `O=C(CCl)Nc1ccc(-c2nc3ccccc3[nH]2)cc1`, the solubility result in [1] is “Soluble”; in series [3], “Insoluble”.

On to `O=C(O)/C=C/C(=O)Nc1ccc(-c2nc3ccccc3[nH]2)cc1`, for which the inhibition in series [6] amounted to 45%. Besides, the solubility result in [3] is listed as “Insoluble”.

Turning to `Cc1n[nH]c(C)c1/N=N/c1ccc(-c2nc3ccccc3[nH]2)cc1`, the solubility result in [3] is “Insoluble”.

For the compound `CC(=O)C/C(C)=N/c1ccc(-c2nc3ccccc3[nH]2)cc1`, the solubility result is given as “Soluble” in series [1] and “Insoluble” in [3]. Further, in [7], the inhibition was 7%.

Turning to `O=C(O)c1cc(Nc2ccc(-c3nc4ccccc4[nH]3)cc2)n(-c2ccc([N+](=O)[O-])cc2)n1`, the inhibition in [8] turned out to be 8.1%. The solubility result in [3] was “Insoluble”.

As for `CC(=O)C(/N=N/c1ccc(-c2nc3ccccc3[nH]2)cc1)=C(/C)O`, the solubility entry is given as “Soluble” in series [1] and “Insoluble” in series [3].

Regarding `O=C1N=C(Nc2ccc(-c3nc4ccccc4[nH]3)cc2)CNN1`, the IC50 in series [2] was 437 µM. In addition, the solubility result in series [3] is “Insoluble”.

As to `O=C(NC(=O)c1cc(F)c(F)cc1Cl)Nc1ccsc1-c1n[nH]c(=O)o1`, the IC50 in series [9] turned out to be 30 µM.

On to `CN(C)C(=O)[C@H](O)[C@H](Cc1ccccc1)NC(=O)c1cc2cc(Cl)ccc2[nH]1`, for which the IC50 in [9] was 0.082 µM.

Take `O=C(O)c1cc(Nc2ccc(-c3nc4ccccc4[nH]3)cc2)[nH]n1`: the solubility result in series [1] and in series [3] was “Insoluble” throughout.

Regarding `c1ccc2[nH]c(-c3ccc(NC4=NCCNC4)cc3)nc2c1`, the solubility result in [3] is on record as “Insoluble”.

As to `Oc1nc(=S)[nH]c(O)c1/N=N/c1ccc(-c2nc3ccccc3[nH]2)cc1`, the inhibition in series [7] was 16.1%. The solubility entry in [3] is “Insoluble”.

`Cc1ccc(S(=O)(=O)Nc2ccc(-c3nc4ccccc4[nH]3)cc2)cc1`: the solubility entry in series [1] is “Soluble”; in series [3] it was “Insoluble”. The inhibition in series [5] was 20.7%.

As to `Nc1ccc(-c2nc3ccccc3[nH]2)cc1`, the solubility entry in series [3] is “Insoluble”.

In the case of `O=C(N[C@@H](Cc1ccc(F)cc1)C(=O)C(=O)N1CCC(O)CC1)c1cc2cc(Cl)ccc2[nH]1`, the IC50 came out at 0.2 µM in series [9] and 0.178 µM in series [10].
